Laboratory results taken from patent US20140005163A1 (NOVARTIS AG, priority 2010, published 2014).
≈ marks a conversion by molar mass, not a printed value.

Experiments:
Solubility at pH 6.8 = type: physicochemical; details: pH 6.8, aqueous buffer, thermodynamic from solid; read-out: solubility
Outline: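 Solubility was measured at pH 6.8 following the cited Zhou et al. (2007) procedure.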

PI3K alpha = target: T1, PI3K alpha (Homo sapiens, UniProt P42336); experiment: PI3K alpha kinase assay (Kinase-Glo luminescence); type: biochemical
T1 construct: p85(iSH2) fusion partner (see partner chain) (N); His tag (C); made in house; host or cells: baculovirus; Tn5 (Trichoplusia ni) or TiniPro insect cells
T1 sequence (P42336 with tags, fused parts or gaps limits assumed): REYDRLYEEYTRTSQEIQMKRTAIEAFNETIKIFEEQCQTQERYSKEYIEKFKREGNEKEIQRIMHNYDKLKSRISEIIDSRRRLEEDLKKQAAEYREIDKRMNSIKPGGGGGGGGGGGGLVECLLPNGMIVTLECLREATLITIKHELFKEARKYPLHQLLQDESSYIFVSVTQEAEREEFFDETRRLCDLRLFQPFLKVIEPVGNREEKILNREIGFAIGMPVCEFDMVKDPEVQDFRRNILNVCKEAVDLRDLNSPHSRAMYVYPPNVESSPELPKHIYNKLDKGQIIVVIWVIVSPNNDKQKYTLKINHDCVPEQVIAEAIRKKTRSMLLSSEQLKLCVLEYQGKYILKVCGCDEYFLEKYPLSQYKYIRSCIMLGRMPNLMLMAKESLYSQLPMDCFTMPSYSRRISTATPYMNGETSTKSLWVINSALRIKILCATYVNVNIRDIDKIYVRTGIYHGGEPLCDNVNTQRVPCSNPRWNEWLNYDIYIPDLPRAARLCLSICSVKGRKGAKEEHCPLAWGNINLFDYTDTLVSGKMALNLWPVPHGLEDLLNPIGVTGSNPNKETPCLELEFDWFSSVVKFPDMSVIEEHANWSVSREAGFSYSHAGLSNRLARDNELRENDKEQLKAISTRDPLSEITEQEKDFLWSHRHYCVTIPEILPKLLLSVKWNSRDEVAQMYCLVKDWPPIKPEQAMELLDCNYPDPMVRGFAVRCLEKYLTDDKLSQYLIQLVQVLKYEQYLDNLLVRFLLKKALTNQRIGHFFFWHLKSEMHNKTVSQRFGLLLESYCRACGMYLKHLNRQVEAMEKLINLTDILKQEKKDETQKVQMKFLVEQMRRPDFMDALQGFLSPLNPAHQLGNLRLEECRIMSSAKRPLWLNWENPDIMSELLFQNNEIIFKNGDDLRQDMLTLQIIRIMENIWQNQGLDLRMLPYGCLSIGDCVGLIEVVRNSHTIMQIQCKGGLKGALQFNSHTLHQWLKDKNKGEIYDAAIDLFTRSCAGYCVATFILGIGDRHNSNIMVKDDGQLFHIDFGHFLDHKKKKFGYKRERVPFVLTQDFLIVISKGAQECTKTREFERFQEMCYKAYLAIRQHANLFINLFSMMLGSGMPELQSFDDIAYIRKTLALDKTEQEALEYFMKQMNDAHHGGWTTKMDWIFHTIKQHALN
Outline: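 Read-out: Kinase-Glo luminescence of ATP left after 60 min at room temperature. Conditions: 10 nM PI3Kα (EMV B1075), 1 μM ATP, 10 μg/mL PI substrate, Tris pH 7.5 buffer with MgCl2, NaCl, CHAPS and DTT. IC50s fitted with a four-parameter logistic model.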

[1] = test system: PKB Ser473 phosphorylation in Rat1-myr-HA-p110 alpha cells; experiment: Reverse protein array assay, PKB Ser473 phosphorylation in Rat1-myr-p110 alpha cells; type: cell-based; details: 0.5 h, pAkt Ser473, 30 minutes compound incubation, read-out: p-PKB IC50
Outline: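 Cells: Rat1-myr-HA-p110 alpha/beta/delta, seeded ≥20 h. Lysis on ice 10 min; reverse-phase protein array, 4 lysate dilutions; fluorescence read, relative intensity.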

| Structure (SMILES) | solubility (Solubility at pH 6.8) | IC50 (PI3K alpha) | IC50 [1] |
| --- | --- | --- | --- |
| Cc1nn(C)cc1-n1c(=O)n(C)c2cnc3ccc(-c4cncc(N(C)C)c4)cc3c21 [Example 178, 8-(5-Dimethylamino-pyridin-3-yl)-1-(1,3-dimethyl-1H-pyrazol-4-yl)-3-methyl-1,3-dihydro-imidazo[4,5-c]quinolin-2-one] | 25 µg/mL (≈ 60.5 µM) | 82 nM | 20 nM |
| Cc1nn(C)cc1-n1c(=O)n(C)c2cnc3ccc(-c4cncc(N5CCC5)c4)cc3c21 [Example 179, 8-(5-Azetidin-1-yl-pyridin-3-yl)-1-(1,3-dimethyl-1H-pyrazol-4-yl)-3-methyl-1,3-dihydro-imidazo[4,5-c]quinolin-2-one] | 28 µg/mL (≈ 65.8 µM) | 39 nM | 18 nM |
| CNc1cncc(-c2ccc3ncc4c(c3c2)n(-c2cn(C(C)C)nc2C)c(=O)n4C)c1 [Example 180.2, 1-(1-Isopropyl-3-methyl-1H-pyrazol-4-yl)-3-methyl-8-(5-methylamino-pyridin-3-yl)-1,3-dihydro-imidazo[4,5-c]quinolin-2-one] | 10 µg/mL (≈ 23.4 µM) | 22 nM | < 5 nM |
| CCOc1cc(-c2ccc3ncc4c(c3c2)n(-c2cn(C)nc2C)c(=O)n4C)cnc1CC [Example 187, 1-(1,3-Dimethyl-1H-pyrazol-4-yl)-8-(5-ethoxy-6-ethyl-pyridin-3-yl)-3-methyl-1,3-dihydro-imidazo[4,5-c]quinolin-2-one] | 3 µg/mL (≈ 6.78 µM) | 15 nM | 6 nM |
| CCc1ncc(-c2ccc3ncc4c(c3c2)n(-c2cn(C)nc2C)c(=O)n4C)cc1O [Example 188, 1-(1,3-Dimethyl-1H-pyrazol-4-yl)-8-(6-ethyl-5-hydroxy-pyridin-3-yl)-3-methyl-1,3-dihydro-imidazo[4,5-c]quinolin-2-one] | 44 µg/mL (≈ 106 µM) | 9 nM | 8 nM |
| Cc1nn(C)cc1-n1c(=O)n(C)c2cnc3ccc(-c4cnc(CO)c(OC(CF)CF)c4)cc3c21 [Example 192, 1-(1,3-Dimethyl-1H-pyrazol-4-yl)-8-[5-(2-fluoro-1-fluoromethyl-ethoxy)-6-hydroxymethyl-pyridin-3-yl]-3-methyl-1,3-dihydro-imidazo[4,5-c]quinolin-2-one] | 27 µg/mL (≈ 54.6 µM) | < 3 nM | 12 nM |
| COCc1ccc(-c2ccc3ncc4c(c3c2)n(-c2cn(C)nc2Cl)c(=O)n4C)cn1 [Example 203, 1-(3-Chloro-1-methyl-1H-pyrazol-4-yl)-8-(6-methoxymethyl-pyridin-3-yl)-3-methyl-1,3-dihydro-imidazo[4,5-c]quinolin-2-one] | 12 µg/mL (≈ 27.6 µM) | 5 nM | 10 nM |

The next lines start with the values.

| solubility (Solubility at pH 6.8) | IC50 (PI3K alpha) | IC50 [1] | Structure (SMILES) |
| --- | --- | --- | --- |
| 243 µg/mL (≈ 499 µM) | 13 nM | 27 nM | CCn1cc(-n2c(=O)n(C)c3cnc4ccc(-c5cnc(COC)c(OC(C)C)c5)cc4c32)c(C)n1 [Example 191.2, 1-(1-Ethyl-3-methyl-1H-pyrazol-4-yl)-8-(5-isopropoxy-6-methoxymethyl-pyridin-3-yl)-3-methyl-1,3-dihydro-imidazo[4,5-c]quinolin-2-one] |
| > 459 µg/mL | 175 nM | 129 nM | CCOCc1ncc(-c2ccc3ncc4c(c3c2)n(-c2cn(C)nc2C)c(=O)n4C)cc1OC [Example 196.2, 1-(1,3-Dimethyl-1H-pyrazol-4-yl)-8-(6-ethoxymethyl-5-methoxy-pyridin-3-yl)-3-methyl-1,3-dihydro-imidazo[4,5-c]quinolin-2-one] |
| 225 µg/mL (≈ 462 µM) | 41 nM | 77 nM | CCOc1cc(-c2ccc3ncc4c(c3c2)n(-c2cn(C(C)C)nc2C)c(=O)n4C)cnc1COC [Example 197.2, 8-(5-Ethoxy-6-methoxymethyl-pyridin-3-yl)-1-(1-isopropyl-3-methyl-1H-pyrazol-4-yl)-3-methyl-1,3-dihydro-imidazo[4,5-c]quinolin-2-one] |
